Entries after “also recorded” stand apart in the source; their conditions may differ.
What was measured:
CEM cells = test: Cytotoxic or cytostatic effects on CEM cells grown in presence of peptide; format: cell-based; conditions: 50 mg/ml (highest concentration tested), three days, fresh peptide added each day
HIV-1LAI virus = test: Peptide blockade of HIV-1 induced cell-cell fusion (syncytia formation; Molt4 cells co-cultivated with chronically infected CEM cells); format: cell-based; parameters: Anti-fusogenic activity (in words): dose or concentration left out as unconfirmed; conditions: for Fusion: quantity of compound required for 90% reduction in number of syncytia: control = 90 syncytia; for No. Syncytia/well: Table 3, ctrl cells only = 85; for Inhibitory / anti-viral / biological activity (in words): cell fusion assay
Experimental: The initial screen for antiviral activity of the peptides shown in FIG. 1 was for blockade of syncytium formation induced by overnight co-cultivation of uninfected Molt4 cells with chronically infected (HIV-1IIIB) CEM cells.
Approximately 7×10^4 Molt cells were incubated with 1×10^4 CEM cells chronically infected with the HIV-1LAI virus in 96 well plates (one-half area cluster plates;Costar. Cambridge, Mass.) in a final volume of […] culture media in accordance with known techniques (T. Matthews et al., Proc. Natl. Acad. Sci. U.S.A. 84, 5424 (1987)). Peptide inhibitors were added in a volume of […] and the cell mixtures were incubated for 24 hr at 37° C. At that time point, multinucleated giant cells were estimated by microscopic examination at a 40× magnification which allowed visualization of the entire well in a single field.

HIV-1LAI = test: Peptide inhibition of infection by cell-free virus (neutralization assay; AA5 cells, RT activity readout); format: cell-based
Experimental: Cell cultures were maintained in 96-well microtiter plates for 8 days by addition of fresh medium (but no further addition of peptides) every other day. On the eighth day post-infection, supernatant was tested for reverse transcriptase activity as evidence of successful infection.
The micro RT assay was adapted from Goff et al. (J. Virol. 38, 239 (1981)) and Willey et al. (J. Virol. 62, 139 (1988)). Supernatants from virus/cell cultures are made 1% in Triton-X100. A […] sample of supernatant was added to 50 ml of RT cocktail in a 96 well U bottom microtiter plate and the samples incubated at […] for 90 min. The cocktail contained 75 mM KCl, 2 mM dithiothreitol, 5 mm Mgcl2l 5 mg/ml poly A (Pharmacia cat. No. 27-4110-01), 0.25 units/ml oligo dT (Pharmacia cat. No. 27-7858-01), 0.05% NP40, 50 mM Tris-HC1, pH 7.8, 0.5 mM non-radioactive dTTP, and 10 mCi/ml ^32p-dTTP (Amersham cat. No. PB.10167). After the incubation period, 40 ml of reaction mixture was applied to a Schleicher and Schuell NA45 membrane (or DE81 paper) saturated in 2×SSC buffer (0.3M NaCl and […]) held in a Schleicher and Schuell Minifold over one sheet of GB003 filter paper. Each well of the minifold was washed four times with […] 2×SSC. The membrane was removed from the minifold and washed 2 more times in a pyrex dish with an excess of 2×SSC. Finally the membrane was drained on absorbent paper, placed on Whatman #3 paper, covered with saran wrap, and exposed to film overnight.
The HIV1LAI virus was obtained from R. Gallo (see M. Popovic et al., Science 224, 497 (1984)) and propagated in CEM cells cultured in RPMI 1640 containing 10-% FCS. Supernatant from the infected CEM cells was passed through a […] and the infectious titer estimated in a microinfectivity assay using the AA5 cell line to support virus replication. For this purpose 25 ml of serially diluted virus was added to 75 ml AA5 cells at 2×10^5/ml in a 96 well microtiter plate. Each virus dilution was tested in triplicate. Cells were cultured for eight days by addition of fresh medium every other day. On day 8 post infection supernatant samples were tested for virus replication as evidenced by RT activity released to the supernatant in accordance with the procedure described above. The TCID50 was calculated according to the Reed and Muench formula in accordance with known techniques. See L. Reed et al., Amer. J. Hygiene 27, 493 (1938) . The titer of the HIV-1LAI stock used for these studies, as measured on the AA5 cell line, was approximately 1×10^7TCID50/ml. The two primary isolates were obtained from PBMCs of two infected donors, one from Brazil (HIV-1Br3) and the other Trinidad (HIV-1Q72775) by co-cultivation with PHA-blasted normal donor PBMCs in RPMI 1640 containing IL2. The infectious titers of the primary virus stocks were estimated by titration onto normal human PHA blasted PBMCs in a 96 well microtiter plate, again using RT activity released to the supernatant as evidence for successful infection. The infectious titer of both of these isolates was estimated to be approximately 1×10^3 TCID100/ml.
The peptides were next tested for blockade of infection by cell-free virus. The results shown in FIG. 3 are representative of several experiments in which the DP-107, 125, and (CS3) peptides were compared for potency in the blockade of HIVLAI, infection of AA5 cells. Each level of peptide was incubated in triplicate with about 500 TCID50 of virus and cells. After 7 days of culture, cell-free supernatant was tested for the presence of RT activity as a measure of successful infection.

[1] = Circular dichroism spectra / thermal melt (secondary structure in solution); format: physicochemical; conditions: for Conformation by CD spectra (in words): 37° C.
Experimental: (A) and 37° C. (B). Concentration dependence of the midpoint of the temperature dependence (Tm) of the CD signal (C). Tm corresponds to the maxima of the first derivative of the CD melt curve. The CD spectra were obtained in […], 150 mM sodium chloride buffer at pH 7.0.
Circular dichroism spectra were measured in 10 mM sodium phosphate, 150 mM sodium chloride, pH 7.0 buffer at approximately […] using a 1 cm pathlength cell on a Jobin/Yvon Autodichrograph Mark V CD spectrometer. Peptide concentrations were determined from A280 using Edlehoch's method (Biochemistry 6, 1948 (1967)).

[2] = biological target: the molecule itself; test: CD thermal melt, concentration dependence of Tm (self-association)
[3] = peptide concentration 1.25 ug/ml on IIIB
[4] = peptide concentration 2.5 ug/ml on IIIB
[5] = peptide concentration 5 ug/ml on IIIB
[6] = peptide concentration 10 ug/ml on IIIB
[7] = peptide concentration 20 ug/ml on IIIB
[8] = peptide concentration 40 ug/ml on IIIB
[9] = EXP. 1, peptide concentration 1.5 micrograms/ml, 0 peptide = 89
[10] = EXP. 1, peptide concentration 3 micrograms/ml, 0 peptide = 89
[11] = EXP. 1, peptide concentration 6 micrograms/ml, 0 peptide = 89
[12] = EXP. 1, peptide concentration 12 micrograms/ml, 0 peptide = 89
[13] = EXP. 1, peptide concentration 25 micrograms/ml, 0 peptide = 89
[14] = EXP. 1, peptide concentration 50 micrograms/ml, 0 peptide = 89

Molecule | Fusion: quantity of compound required for 90% reduction in number of syncytia (HIV-1LAI virus) | Neutraliz: quantity of compound required for 90% reduction in infectivity (HIV-1LAI) | No. Syncytia/well (HIV-1LAI virus; [3]) | No. Syncytia/well (HIV-1LAI virus; [4]) | No. Syncytia/well (HIV-1LAI virus; [5]) | No. Syncytia/well (HIV-1LAI virus; [6]) | No. Syncytia/well (HIV-1LAI virus; [7]) | No. Syncytia/well (HIV-1LAI virus; [8]) | further results
Ac-NNLLRAIEAQQHLLQLTVWGIKQLQARILAVERYLKDQ-NH2 [DP-107] | – | – | – | – | – | – | – | – | Viability and growth rate of CEM cells (CEM cells): same viability and growth rate as control cultures
CGGNNLLRAIEAQQHLLQLTVWGIKQLQARILAV [DP-136] | >40 µg/mL | >30 µg/mL | – | – | – | – | – | – | –
CGGNNLLRAIEAQQHLLQLTVWGIKQLQARILAVERYLKDQGGC [DP-130] | 2 µg/mL | <1 µg/mL | 47 | 0 | 0 | 0 | 0 | 0 | –
DP-31: peptide representing an overlapping immunodominant site of gp41 (SEQ ID NO: 5); sequence only in FIG. 1 (H-ERYLKDQQLLGIWGCSCKLICG-OH; cysteine pairing not given here) | – | – | – | – | – | – | – | – | Syncytia Number (HIV-1LAI virus; [9]): 75; Syncytia Number (HIV-1LAI virus; [10]): 90; Syncytia Number (HIV-1LAI virus; [11]): 87; Syncytia Number (HIV-1LAI virus; [12]): 78; Syncytia Number (HIV-1LAI virus; [13]): 80; Syncytia Number (HIV-1LAI virus; [14]): 85; Inhibitory / anti-viral / biological activity (in words) (HIV-1LAI virus): failed to show inhibitory activity
GIKQLQARILAVERYLKDQQ [DP-122] | >40 µg/mL | >30 µg/mL | – | – | – | – | – | 73 | –
IEAQQHLLQLTVWGIKQLQARILAVERYLKDQ [DP-123] | 40 µg/mL | >30 µg/mL | 80 | 69 | 76 | 86 | 55 | 4 | –
LQARILAVERYLKDQQQ [DP-116, reference compound] | >40 µg/mL | >30 µg/mL | – | – | – | – | – | 77 | Anti-fusogenic activity (in words) (HIV-1LAI virus): no evidence of anti-fusogenic activity; Syncytia Number (HIV-1LAI virus; [9]): 82; Syncytia Number (HIV-1LAI virus; [10]): 89; Syncytia Number (HIV-1LAI virus; [11]): 92; Syncytia Number (HIV-1LAI virus; [12]): 93; Syncytia Number (HIV-1LAI virus; [13]): 82; Syncytia Number (HIV-1LAI virus; [14]): 89; Blockade of HIVLAI infection of AA5 cells (in words) (HIV-1LAI; about 500 TCID50 of virus, RT activity in supernatant, FIG. 3): no hint of anti-viral effect; Conformation by CD spectra (in words) [1]: random coil conformations; Stable secondary structure by CD (in words) ([1]; even at low temperatures and high concentrations): no evidence for stable secondary structure
NNLLRAIEAQQHLLQLTVWGAKQLQARILAVERYLKDQ [DP-140] | 17 µg/mL | 14 µg/mL | – | – | – | – | – | – | –
NNLLRAIEAQQHLLQLTVWGIKQLQARILAV [DP-127] | 7 µg/mL | 23 µg/mL | 87 | 53 | 20 | 0 | 0 | 0 | –
NNLLRAIEAQQHLLQLTVWGIKQLQARILAVERYLKDQGGC [DP-129] | <1 µg/mL | <1 µg/mL | 0 | 0 | 0 | 0 | 0 | 0 | –
NNLLRAIEAQQHLLQLTVWGPKQLQARILAVERYLKDQ (Ac-NNLLRAIEAQQHLLQLTVWGPKQLQARILAVERYLKDQ-NH2) [DP-121] | >40 µg/mL | >30 µg/mL | – | – | – | – | – | 79 | Syncytia Number (HIV-1LAI virus; EXP. 3, peptide concentration 2.5 micrograms/ml, 0 peptide = 76): 68; Syncytia Number (HIV-1LAI virus; EXP. 3, peptide concentration 5 micrograms/ml, 0 peptide = 76): 60; Syncytia Number (HIV-1LAI virus; EXP. 3, peptide concentration 10 micrograms/ml, 0 peptide = 76): 65; Syncytia Number (HIV-1LAI virus; EXP. 3, peptide concentration 20 micrograms/ml, 0 peptide = 76): 71; Syncytia Number (HIV-1LAI virus; EXP. 3, peptide concentration 40 micrograms/ml, 0 peptide = 76): 69; Inhibitory / anti-viral / biological activity (in words) (HIV-1LAI virus): did not exhibit anti-viral activity; also recorded: no sign of inhibitory activity; Conformation by CD spectra (in words) [1]: random coil conformations; also recorded: failed to exhibit helix related signals
NNLLRAIEAQQHLLQLTVWGSKQLQARILAVERYLKDQ [DP-139] | >40 µg/mL | >30 µg/mL | – | – | – | – | – | – | –
QQLLDVVKRQQEMLRLTVWGTKNLQARVTAIEKYLKDQ [DP-118] | – | – | 74 | 78 | 80 | 77 | 0 | 0 | –
Ac-NNLLRAIEAQQHLLQLTVWGIKQLQARILAVERYLKDQ-NH2 (Synthetic peptide; also called peptide DP-107) [DP-107] | – | – | – | – | – | – | – | – | binding result [2]: binds

— patent publication US6573078B1, “Compounds which inhibit HIV replication” (priority 1992, dated 2003)
